Data from paper PMC9562282, “Reaction of Thiosulfate Dehydrogenase with a Substrate Mimic Induces Dissociation of the Cysteine Heme Ligand Giving Insights into the Mechanism of Oxidative Catalysis” (Journal of the American Chemical Society, 2022).

Target: T1, CjTsdA (Campylobacter jejuni thiosulfate dehydrogenase) (Campylobacter jejuni, UniProt A0A5Y8VWW6)
T1 construct: diheme c-type cytochrome (two covalent c hemes), mass 37,202 Da by LCMS with unmodified Cys138; host and tags only in supplement
Assay: LCMS of intact protein (supported by absorbance and MCD spectroscopy)
Format: binding
Details: covalent; cysteinyl-138 sulfonate adduct; 1.5 mM sulfite, anaerobic 50 mM HEPES, 50 mM NaCl, pH 7, 20 °C; ferricyanide as oxidant

O=S(O)O [sulfite]
LCMS of intact protein (supported by absorbance and MCD spectroscopy): sulfite is shown to bind to the active site of CjTsdA
